Each structure is given as a SMILES string.

One assay deals with U937 cell line. Briefly: U937 cell line proliferation inhibitory activity (MTT assay). Format: cell-based. As to conditions: Homo sapiens, U-937, U937 cells. As to the method: (§1) In order to measure cell viability, MTT [3-(4,5-dimethylthiazole-2-yl)-2,5-diphenyltetrazolium bromide] activity assay method (Thiazolyl Blue Tetrazolium Bromide, Sigma Aldrich) was used. Cell lines were cultured in 96-well plates for 24 hours and treated with the compounds of Examples previously prepared. For the compound treatment, 10 mM stocks were prepared, serially diluted in DMSO and added by 0.5 μL at 8 points (final concentration of 0.5%). The cell lines in plates treated with the compounds was cultured for 48 hours, then 15 μL of dye was added to each well and cultured for 4 hours. Then, 100 μL of DMSO solvent was added to each well, and the formed solid was dissolved to measure the absorbance. The absorbance was read at a wavelength of 570 nm using EnVision 2103, and the GI 50 value was calculated using GraphPad Prism 4.0 software, and the results are shown in Table 1 below.
U937 cell lines were purchased from ATCC and cultured in a RPMI culture medium (containing 10% FBS, 1% penicillin/streptomycin and 25 mM HEPES) in the presence of 5% CO2 at 37° C. The cell line proliferation inhibitory activity for Examples previously prepared was measured using the same MTT activity assay method as the A375P cell line proliferation inhibitory activity assay in Experimental Example 1.

The subject of a further assay is A375P cell line. Briefly: A375P cell line proliferation inhibitory activity (MTT assay). Format: cell-based. As to conditions: A375P cells, 48 hours treatment. How it is done: A375P cell lines were purchased from ATCC and cultured in a DMEM culture medium (containing 10% FBS and 1% penicillin/streptomycin) in the presence of 5% CO2 at 37° C. The cultured A375P cell lines were taken from culture substrate with 0.05% trypsin-0.02% EDTA and plated at a density of 5×10^3 cells per well in 96-well plates.
as §1

Another assay addresses T1, FMS (Homo sapiens, UniProt P07333).
T1 construct: purchased Reaction Biology Corporation
Kind of assay: FMS inhibitory activity (Reaction Biology Kinase profiling, IC50 profiler express). The assay is classed as biochemical. As to the method:
The inhibitory activity of FMS at a concentration of 10 μM of the compound prepared in Example 5 was measured using Kinase profiling services (IC 50 profiler express) offered by Reaction Biology Corporation.

T1 sequence (P07333 20-972): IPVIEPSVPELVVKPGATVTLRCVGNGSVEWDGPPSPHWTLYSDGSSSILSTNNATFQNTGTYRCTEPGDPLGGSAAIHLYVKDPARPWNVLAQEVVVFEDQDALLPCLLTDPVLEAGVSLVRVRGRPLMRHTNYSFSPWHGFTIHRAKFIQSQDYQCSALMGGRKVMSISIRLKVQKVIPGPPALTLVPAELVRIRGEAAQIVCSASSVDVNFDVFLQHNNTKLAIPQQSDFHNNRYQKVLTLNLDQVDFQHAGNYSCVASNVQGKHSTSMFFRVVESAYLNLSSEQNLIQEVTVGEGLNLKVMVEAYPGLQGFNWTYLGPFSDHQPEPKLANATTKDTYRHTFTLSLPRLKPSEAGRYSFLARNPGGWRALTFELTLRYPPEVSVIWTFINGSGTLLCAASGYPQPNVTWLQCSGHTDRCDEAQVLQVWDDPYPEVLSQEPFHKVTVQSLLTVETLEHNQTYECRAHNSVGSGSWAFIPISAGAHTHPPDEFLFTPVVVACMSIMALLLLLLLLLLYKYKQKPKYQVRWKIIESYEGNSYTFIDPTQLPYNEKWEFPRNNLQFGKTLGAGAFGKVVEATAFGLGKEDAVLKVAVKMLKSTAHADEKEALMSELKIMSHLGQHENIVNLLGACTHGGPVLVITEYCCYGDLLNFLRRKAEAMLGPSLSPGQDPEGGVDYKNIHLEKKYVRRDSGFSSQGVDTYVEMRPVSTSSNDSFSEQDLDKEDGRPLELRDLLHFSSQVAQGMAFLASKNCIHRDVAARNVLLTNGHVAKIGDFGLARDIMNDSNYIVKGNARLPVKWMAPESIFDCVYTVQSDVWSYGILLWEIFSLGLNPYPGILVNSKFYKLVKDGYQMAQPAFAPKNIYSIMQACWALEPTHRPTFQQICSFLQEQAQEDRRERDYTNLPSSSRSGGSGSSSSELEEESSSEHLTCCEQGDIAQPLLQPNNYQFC

By GI50 is commonly meant the concentration giving 50% growth inhibition. Consider `Cc1ccc(NC(=O)c2ccc(Cl)c(C(F)(F)F)c2)cc1NC(=O)c1cnoc1C` [Example 5, N-(5-(4-chloro-3-(trifluoromethyl)benzamido)-2-methylphenyl)-5-methylisoxazole-4-carboxamide], for which the GI50 with U937 cell line and in the assay on A375P cell line was 10 to 30 µM each time. In addition, at FMS (compound concentration 10 μM, read-out: FMS activity inhibited), the inhibition at 10 µM was found to be 98.7%. Moreover, the IC50 on FMS (sequentially decreasing concentration, read-out: concentration that inhibits FMS activity by 50% (IC50)) turned out to be 0.00995 µM.
As to `Cc1cc(NC(=O)Nc2cc(Cl)cc(Cl)c2)ccc1NC(=O)c1cnoc1C` [Example 41, N-(4-(3-(3,5-dichlorophenyl)ureido)-2-methylphenyl)-5-methylisoxazole-4-carboxamide], the GI50 with U937 cell line and in the assay on A375P cell line was 10 to 30 µM each time.
Take `Cc1ccc(NC(=O)Nc2ccc(Cl)cc2)cc1NC(=O)c1cnoc1C` [Example 28, N-(5-(3-(4-chlorophenyl)ureido)-2-methylphenyl)-5-methylisoxazole-4-carboxamide]: the GI50 in the assay on U937 cell line and in the assay on A375P cell line was 10 to 30 µM throughout.
Regarding `Cc1ccc(NC(=O)c2ccc3ccccc3n2)cc1NC(=O)c1cnoc1C` [Example 12, 5-methyl-N-(2-methyl-5-(quinoline-2-carboxamido)phenyl)isoxazole-4-carboxamide], the GI50 in the assay with U937 cell line and in the assay on A375P cell line was 10 to 30 µM each time.
For the compound `Cc1ccc(NC(=O)c2ccccc2Sc2ccccc2C#N)cc1NC(=O)c1cnoc1C` [Example 21, N-(5-(2-(2-cyanophenylthio)benzamido)-2-methylphenyl)-5-methylisoxazole-4-carboxamide], the GI50 with U937 cell line and in the assay with A375P cell line was 10 to 30 µM throughout.
In the case of `Cc1ccc(NC(=O)c2ccc(Cl)cc2)cc1NC(=O)c1cnoc1C` [Example 7, N-(5-(4-chlorobenzamido)-2-methylphenyl)-5-methylisoxazole-4-carboxamide], the GI50 in the assay with U937 cell line and with A375P cell line was 10 to 30 µM in each case.
Take `Cc1ccc(NC(=O)c2cccc(Cl)c2)cc1NC(=O)c1cnoc1C` [Example 6, N-(5-(3-chlorobenzamido)-2-methylphenyl)-5-methylisoxazole-4-carboxamide]: the GI50 with U937 cell line and with A375P cell line was 10 to 30 µM each time.
Take `Cc1cn(-c2cc(C(=O)Nc3ccc(C)c(NC(=O)c4cnoc4C)c3)cc(C(F)(F)F)c2)cn1` [Example 11, 5-methyl-N-(2-methyl-5-(3-(4-methyl-1H-imidazol-1-yl)-5-(trifluoromethyl)benzamido)phenyl)isoxazole-4-carboxamide]: the concentration for 50% growth inhibition (GI50) was below 1 µM with U937 cell line and 10 to 30 µM with A375P cell line.
`Cc1cc(NC(=O)Nc2ccc(Cl)cc2)ccc1NC(=O)c1cnoc1C` [Example 39, N-(4-(3-(4-chlorophenyl)ureido)-2-methylphenyl)-5-methylisoxazole-4-carboxamide]: the GI50 in the assay with U937 cell line and in the assay with A375P cell line was 10 to 30 µM each time.
As for `Cc1cc(C)cc(C(=O)Nc2ccc(C)c(NC(=O)c3cnoc3C)c2)c1` [Example 24, N-(5-(3,5-dimethylbenzamido)-2-methylphenyl)-5-methylisoxazole-4-carboxamide], the concentration for 50% growth inhibition (GI50) was 1 to 10 µM in the assay with U937 cell line and 10 to 30 µM with A375P cell line.
On to `Cc1ccc(NC(=O)Nc2cc(Cl)cc(Cl)c2)cc1NC(=O)c1cnoc1C` [Example 33, N-(5-(3-(3,5-dichlorophenyl)ureido)-2-methylphenyl)-5-methylisoxazole-4-carboxamide], for which the GI50 in the assay with U937 cell line and with A375P cell line was 10 to 30 µM throughout.
As for `Cc1ccc(NC(=O)Cc2c[nH]c3ccccc23)cc1NC(=O)c1cnoc1C` [Example 16, N-(5-(2-(1H-indol-3-yl)acetamido)-2-methylphenyl)-5-methylisoxazole-4-carboxamide], the GI50 in the assay on U937 cell line and in the assay with A375P cell line was 10 to 30 µM throughout.
On to `CC(=O)N1CCC(C(=O)Nc2ccc(C)c(NC(=O)c3cnoc3C)c2)CC1` [Example 15, N-(5-(1-acetylpiperidine-4-carboxamido)-2-methylphenyl)-5-methylisoxazole-4-carboxamide], for which the GI50 in the assay on U937 cell line and in the assay on A375P cell line was 10 to 30 µM each time.
Turning to `Cc1ccc(NC(=O)Nc2cccc(C(F)(F)F)c2)cc1NC(=O)c1cnoc1C` [Example 29, 5-methyl-N-(2-methyl-5-(3-(3-(trifluoromethyl)phenyl)ureido)phenyl)isoxazole-4-carboxamide], the GI50 in the assay on U937 cell line and in the assay with A375P cell line was 10 to 30 µM throughout.
Turning to `Cc1ccc(NC(=O)c2ccncc2)cc1NC(=O)c1cnoc1C` [Example 20, N-(5-(isonicotinamido)-2-methylphenyl)-5-methylisoxazole-4-carboxamide], the GI50 in the assay on U937 cell line and with A375P cell line was 10 to 30 µM in each case.

Source of the values: patent publication US9789086B1, “N-(5-arylamido-2-methylphenyl)-5-methylisooxazole-4-carboxamide deravative, pharmaceutical acceptable salt thereof, method for preparation therof and FMS kinase inhibitor comprising the same as anactive ingredient” (Industry-University Cooperation Foundation Hanyang …, priority 2014, dated 2017).
